The numbers were not newly measured in patent US7101871B2, “Beta-amino heterocyclic dipeptidyl peptidase inhibitors for the treatment or prevention of diabetes” (Merck & Co., Inc., priority 2002, dated 2006), which cites them from elsewhere.

One series deals with cardiac allograft. The note with it: rats; doubled from day 7 to day 14.
In the next series the test system is hematopoiesis. The note with it: mouse, cyclophosphamide-induced neutropenia (WO 99/56753).
The test system of series [1] is GRF degradation in plasma.

Take `CC(C)N1CCC(c2ccccc2)(c2ccccc2)CC1` [Prodipine, Pro-Pro-diphenyl-phosphonate]: the cardiac allograft survival in the series with cardiac allograft was 14 day. Turning to `CC(C)[C@H](N)C(=O)N1CCC[C@H]1B(O)O` [Val-Boro-Pro], the effect on hematopoiesis entry in the series with hematopoiesis is “stimulated hematopoiesis”.

Regarding `CC[C@H](C)[C@H](N)C(=O)N1CCC[C@H]1C(=O)N[C@H](C(=O)O)[C@@H](C)CC` [diprotin A], the “effect on degradation of GRF to GRF[3-44] in plasma” value in series [1] is “prevented”.
